Test results taken from US20260345723A1, “Treatments for Opioid-Induced Respiratory Depression” (priority 2023, published 2026).

What was measured:
CXCR4 [1] = conditions: cited from earlier work
CCR2 [2] = conditions: selective CCR2 receptor antagonists, mice; cited from earlier work
CCR2 [3] = conditions: pretreatment with CCR2 antagonist; cited from earlier work
tolerance to morphine = conditions: in vivo; cited from earlier work
chemokine release = conditions: cited from earlier work
IBA1 mRNA = conditions: rat, in vivo
[4] = tested on: mu-opioid receptor (OPRM1); conditions: rat, in vivo
GFAP mRNA = conditions: rat, in vivo
[5] = tested on: morphine-induced respiratory depression; conditions: rat, in vivo
CCR5 [6] = conditions: rat, in vivo
CCR2 [7] = conditions: rat, in vivo
CXCR4 [8] = conditions: rat, in vivo
CXCR4 [9] = conditions: pretreatment, hypoxic neonatal rats; cited from earlier work
CCR5 [10] = conditions: CCR5 antagonist, rats; cited from earlier work
CCR5 [11] = conditions: cited from earlier work

## c1cc(CN2CCCNCCNCCCNCC2)ccc1CN1CCCNCCNCCCNCC1 [AMD3100]
CXCR4 [1]
  CXCR4 antagonism: antagonist of CXCR4
  mobilization of hematopoietic stem cells: mobilize hematopoietic stem cells

## COc1ccc(C2(O)CCC(N3CC[C@@H](NC(=O)CNC(=O)c4cccc(C(F)(F)F)c4)C3)CC2)cn1 (stereo partly shown) [INCB 3284]
CCR2 [2]
  methamphetamine-induced place conditioning: reduce

## Cc1ccc2c(c1)C1(CCN(CCc3nc(-c4ccccc4)oc3C)CC1)OC(=O)N2 [RS504393]
CCR2 [2]
  methamphetamine-induced place conditioning: reduce

## O=C1Nc2ccccc2C2(CCN(CCc3ccc(C(F)(F)F)cc3)CC2)O1 [RS-102895]
CCR2 [3]
  inflammation caused by CCL2: inhibited

## CN(C)c1ccc(O)c2c1C[C@H]1C[C@H]3[C@H](N(C)C)C(O)=C(C(N)=O)C(=O)[C@@]3(O)C(O)=C1C2=O [minocycline]
Tolerance to morphine
  tolerance to morphine: attenuates tolerance to morphine
Chemokine release
  chemokine release: inhibits chemokine release

## CN1CC[C@]23c4c5ccc(O)c4O[C@H]2[C@@H](O)C=C[C@H]3[C@H]1C5 [morphine, reference compound]
IBA1 mRNA
  microglial gene expression, VTA, NAC, PFC: not altered
[4]
  OPRM1 protein levels, VTA: significantly increased OPRM1 protein levels
GFAP mRNA
  GFAP mRNA levels, NAC: significantly enhanced
  GFAP mRNA levels, VTA and PFC: no significant changes were detected
[5]
  SpO2 (oxygen saturation): under 90%
  cumulative SpO2: significantly reduced SpO2
  cumulative respiratory rate: significantly increased respiratory rate
CCR5 [6]
  CCR5 protein levels, NAC: significantly reduced CCR5 protein levels
  CCR5 protein levels, VTA: did not significantly change
CCR2 [7]
  CCR2 protein levels, NAC: significantly reduced CCR2 protein levels
  CCR2 protein levels, PFC: significantly enhanced CCR2 protein levels
  CCR2 protein levels, VTA: significantly enhanced CCR2 protein levels
CXCR4 [8]
  CXCR4 protein levels, VTA: significantly enhanced CXCR4 protein levels

## dexamethasone
CXCR4 [9]
  CXCR4 receptors: downregulates CXCR4 receptors
  neuroprotection: induces neuroprotection

## maraviroc
CCR5 [10]
  locomotor-activating effects of cocaine: reduce
  rewarding efficacy of cocaine: reduce
CCR5 [11]
  HIV entry into cells that express CCR5: inhibits the entry
